Data from US11149047B2, “Aryl imidazoles for treatment of cancer” (Aptose Biosciences Inc., priority 2017, dated 2021).

Test system: phosphorylated ATM, γH2AX, cleaved PARP in Raji cells
Test: Western blot of phospho-ATM, γH2AX and cleaved PARP
Assay type: cell-based, human
Conditions: 0.5 μM
Protocol: The structure of COMPOUND I is similar to drugs that bind to quadruplex structures in DNA which results in strand breaks; this led to the investigation of whether COMPOUND I caused damage to DNA. The parental Raji cells were treated with 0.5 μM COMPOUND I for increasing periods of time and induction of DNA damage was assessed by accumulation of the phosphorylated forms of ATM and γH2AX measured by Western blot analysis. […] Raji cells have very small nuclei making it difficult to quantify the formation of γH2AX foci, so the human ovarian carcinoma cell line CAOV3 was used for this purpose. […] Evidence of DNA damage was further strengthened by the results of the neutral comet assay which mainly detects DNA double strand breaks (FIG. 2D).

Cc1[nH]c2ccc(F)cc2c1-c1nc2c3cccnc3c3ncccc3c2[nH]1 [COMPOUND I, 2-(5-fluoro-2-methyl-1H-indol-3-yl)-1H-imidazo[4,5-f][1,10]phenanthroline]
cleavage of PARP (time course): detected starting at 8 h
phosphorylated ATM and γH2AX accumulation (up to 24 h): clear increase in phosphorylated ATM and γH2AX starting at 6 h
